Reference: ChEMBL document CHEMBL3352621, “Pentapeptide boronic acid inhibitors of Mycobacterium tuberculosis MycP1 protease” (Bioorg Med Chem Lett, 2014)
The source made the active and inactive calls. Peptide text beside a SMILES is read from it. * marks the point of attachment. boroAla = C[C@H](N*)B(O)O

Tests used:
[1] = tested on: Mycobacterium thermoresistibile
[2] = tested on: Mycolicibacterium smegmatis
[3] = tested on: Mycobacterium tuberculosis

Measured: inhibition

CC(C)[C@H](NC(=O)[C@H](C)N)C(=O)N[C@@H](CCCCN)C(=O)N[C@@H](C)C(=O)N[C@@H](C)B(O)O (H-AVKA-boroAla)
inactive: all assays above
